The text below walks through data of PubChem BioAssay AID179 (DTP/NCI, 2004).

For the assay, the system named is CEM cells HIV-1 protection, formazan growth assay. As to the kind of experiment: NCI AIDS Antiviral Assay. The settings on record: for IC50: measured here: growth of uninfected CEM cells. Put shortly:
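CEM (human) cells, HIV-1 infected vs uninfected, 5-point dosing, formazan growth read-out. Retest threshold 50% protection.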

The source made the active and inactive calls.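 How the source made its calls: active means compounds giving half or more protection of infected cells from virus-caused growth loss, again on retest; inactive means the rest.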 Where a SMILES comes first, the peptide text is derived from it.

Broadly, the EC50 is the concentration that produces a half-maximal response. In general, IC50 refers to the concentration at which inhibition is half-maximal. Read a low IC50 as greater potency. Consider `C[CH2][Sn]([CH2]C)([O]C(=O)c1cccc(OC)c1)[O][Sn]([CH2]C)([CH2]C)[O]C(=O)c1cccc(OC)c1`, for which the EC50 is > 38.9 µM and the IC50 came to 16.6 µM.
Regarding `CCCC(=O)C(C)=C(OC)OC`, the result was inactive.
Regarding `O=C1OCC(C2CCCCC2)C(Br)=C1Br` (stereo unspecified), the EC50 was > 200 µM and the IC50 came out at 56.2 µM.
As for `CC(C)(C)c1cc(C(c2ccccc2)c2ccccc2)cc(C(C)(C)C)c1O`, the EC50 is > 60.3 µM and the IC50 was found to be 33.1 µM.
With `COc1cc(Cl)cc(N(O)C(C)=O)c1OCc1ccccc1`, the EC50 is > 562 µM and the half-maximal inhibitory concentration (IC50) is 58.9 µM.
The matching figures for `C/C(=C1/CCC/C(=C(/C)c2ccccc2)C1=O)c1ccccc1`: > 9.12 µM and > 9.12 µM.
As for `C(=C/c1nc2ccccc2o1)/c1ccc2c(c1)OCO2`, the EC50 is > 10.2 µM and the half-inhibitory concentration (IC50) was > 10.2 µM.
As to `COC(=O)c1nn2ccc3ccccc3c2c1C(=O)OC`, the EC50 is > 200 µM and the IC50 stood at 93.3 µM.
Take `CSc1ncc(Br)c(Nc2c[nH]c(=O)[nH]c2=O)n1`: the EC50 was > 200 µM and the IC50 is > 200 µM.
In the case of `O=S1c2ccccc2S(=O)c2ccccc21` (stereo unspecified), the EC50 is > 200 µM and the IC50 was > 200 µM.
`COc1ccc(-c2c(O)c3c(OC)cc(OC)cc3oc2=O)cc1`: the EC50 was > 200 µM and the IC50 was 158 µM.
Consider `COC1CCC(OS(C)(=O)=O)CO1` (stereo unspecified), for which the EC50 is > 200 µM and the IC50 is 33.9 µM.
`Oc1ccc(C2CC(O)c3ccccc3O2)cc1` (stereo unspecified): the result was inactive.
In the case of `CCCCCCCCOCCS(=O)(=O)O`, the EC50 was > 200 µM and the IC50 is > 200 µM.
For the compound `COC(=O)C(NC(=O)c1ccccc1)C(c1ccc(Cl)cc1)P(=O)(OC)OC` (stereo unspecified), the EC50 was > 309 µM and the IC50 is > 309 µM.
For `CSC(N)=Nc1cccc2ccccc12`, the EC50 is > 200 µM and the IC50 was > 200 µM.
For `COc1cc2c3c(c1)CCCN3CCC2`, the EC50 is > 200 µM and the IC50 turned out to be 13.2 µM.
Consider `COc1cccc(OC)c1SSCCN`, for which the EC50 was > 200 µM and the IC50 was determined as 24.5 µM.
Turning to `CC1C2Cc3ccc(O)cc3C1(C)CCN2CC1CC1` (stereo unspecified), the EC50 was > 200 µM and the IC50 is > 200 µM.
Take `O=c1c(-c2ccc(O)c(O)c2)coc2cc(O)c(O)cc12`: the EC50 was > 200 µM and the IC50 turned out to be 24.5 µM.
In the case of `CN1C(=S)Nc2ncn(C)c2S1(=O)=O`, the EC50 was > 81.3 µM and the IC50 is > 81.3 µM.
Turning to `COC(=O)C1C(=O)C(C(=O)OC)C2CCC1N2C` (stereo unspecified), the EC50 is > 200 µM and the IC50 was determined as 42.7 µM.
Take `CC1=C(C#N)C2(C(=O)N(C)c3ccccc32)C(C#N)=C(C)N1`: the EC50 was > 324 µM and the IC50 was 27.5 µM.
Regarding `COC(=O)/C(=N\NC(N)=S)C(C#N)c1ccccc1` (stereo unspecified), the EC50 was > 129 µM and the IC50 was > 129 µM.
Turning to `C=C1CC2OC(=O)C(=C)C2C(O)C2C(=C)CCC12` (stereo unspecified), the outcome was inactive.
Consider `CCOC(=O)c1oc2c(OC)cc(Cl)c3c2c1CCC3`, for which the result was inactive.
On to `C[C@]12CCC3[C@@H](CC[C@@H]4c5nonc5CC[C@]34C)C1CCC2=O` (stereo partly specified), for which the EC50 is > 57.5 µM and the IC50 was > 57.5 µM.
Regarding `NC(C(F)(F)F)(C(F)(F)F)P(=O)(c1ccccc1)c1ccccc1`, the EC50 was > 200 µM and the IC50 was > 200 µM.
Consider `CC(=O)N=C1N(/C=C2\C(=O)Oc3ccccc3C2=O)C(=O)/C(=C/c2ccccc2Cl)N1C`, for which the EC50 is > 200 µM and the IC50 was 148 µM.
Regarding `Nc1nc(N)c(N)c(Nc2ccccc2)n1`, the EC50 is > 200 µM and the IC50 was found to be 20.4 µM.
As to `O=[N+]([O-])c1ccc(OCc2nnc(CCCCCCCCc3nnc(COc4ccc([N+](=O)[O-])cc4)o3)o2)cc1`, the EC50 is > 200 µM and the IC50 is > 200 µM.
For the compound `O=C(Nc1ccccc1)c1cc(S(=O)(=O)N2CCNC2=O)c(S)cc1Cl`, the EC50 is 112 µM and the IC50 was 132 µM.
For the compound `CC(C)CC(NC(=O)C(CO)NC(=O)C(CCCCN)NC(=O)C(CCCCN)NC(=O)C(NC(=O)CNC(=O)C(NC(=O)C(CO)NC(=O)C(NC(=O)C(NC(=O)C(CO)NC(=O)C(CC(N)=O)NC(=O)C(N)CCC(N)=O)C(C)C)C(C)C)C(C)O)C(C)C)C(=O)NC(Cc1ccccc1)C(=O)NC(CCC(N)=O)C(=O)O` (stereo unspecified) (H-QNSVVSTGVKKSLFQ-OH; configuration not given here), the outcome was inactive.
Regarding `Cc1cc(S(=O)(=O)NC2=NCC(C)(C)CN2)c(S)cc1Cl`, the EC50 was > 200 µM and the IC50 came to 87.1 µM.
In the case of `COc1cc2c(c(OC)c1OC)[C@@H]1CCCCC[C@@H]1CCC2=O`, the EC50 is > 251 µM and the IC50 turned out to be 112 µM.
Take `COc1ccc(C(=O)CC2(O)C(=O)N(CN3CCOCC3)c3ccc(Br)cc32)cc1` (stereo unspecified): the EC50 was > 123 µM and the IC50 was found to be 105 µM.
On to `Cc1cc2c(C)c(-c3ccccc3)c(=O)oc2c(C#N)c1C`, for which the EC50 was > 200 µM and the IC50 turned out to be 170 µM.
In the case of `CCC1(OC(=O)CNC)C(=O)OCc2c1cc1n(c2=O)Cc2cc3ccccc3nc2-1` (stereo unspecified), the EC50 was > 10 µM and the IC50 stood at 0.00977 µM.
Turning to `CC(=O)OC(C)(C)/C=C/C(=O)[C@](C)(O)[C@H]1[C@H](O)C[C@@]2(C)[C@@H]3CC=C4[C@@H](C=C(O)C(=O)C4(C)C)[C@]3(C)C(=O)C[C@]12C`, the EC50 was > 0.2 µM and the 50% inhibitory concentration (IC50) worked out at 0.00676 µM.
As for `S=C(NNC1=NCCN1)Nc1ccccc1`, the EC50 was > 200 µM and the IC50 came to 2.82 µM.
Consider `Nc1ncnc2c1ncn2[C@H]1CC[C@]2(CO)C[C@H]12`, for which the EC50 is > 25.1 µM and the IC50 was > 25.1 µM.
Regarding `N.N.N.N.O=C([O-])O.O=C([O-])[O-].[Co+3]`, the result was inactive.
On to `C=C(CC/C=C\CO)[Si](C)(C)C`, for which the EC50 is > 141 µM and the IC50 was > 141 µM.
For the compound `C1=C(c2ccccc2)CN(c2ccccc2)OC1`, the EC50 was > 57.5 µM and the 50% inhibitory concentration (IC50) was > 57.5 µM.
Turning to `C=C(O)c1ccccc1C#Cc1ccccc1C(=O)OC`, the EC50 is > 200 µM and the IC50 was > 100 µM.
As to `CSc1nc2[nH]c(=O)n(OS(=O)(=O)c3ccccc3)c(=O)c2n1C`, the EC50 was > 200 µM and the IC50 was 115 µM.
In the case of `CC(C#N)(c1ccccc1)N(CCc1ccccc1)C(=O)Oc1ccccc1` (stereo unspecified), the EC50 was > 200 µM and the IC50 is > 200 µM.
In the case of `COc1ccc(OC)c(NC(=O)C(=O)CC(=O)c2sc(-n3nc(-c4ccccc4)cc3-c3ccccc3)nc2C)c1`, the EC50 was > 437 µM and the IC50 stood at 363 µM.
For `CCOC(=O)C1Cc2c(n(C3CCCCC3)c(=O)n(C)c2=O)OC1c1ccccc1` (stereo unspecified), the EC50 was > 63.1 µM and the 50% inhibitory concentration (IC50) is 29.5 µM.
The matching figures for `COc1ccc(-n2nc(C)cc(N)c2=O)cc1`: > 1070 µM and > 1070 µM.
Regarding `O=C1CCC2(c3ccc(F)cc3)Nc3cc([N+](=O)[O-])ccc3N12` (stereo unspecified), the EC50 was > 16.6 µM and the IC50 is > 16.6 µM.
On to `Cc1nc(N)nc(N)c1N1CCN(c2ccc([N+](=O)[O-])cc2)CC1`, for which the EC50 is > 100 µM and the IC50 was determined as 27.5 µM.
As for `Cc1c([N+](=O)[O-])ccc2c1C(=O)c1ccccc1C2=O`, the EC50 was > 200 µM and the IC50 is 28.2 µM.
The like results for `O=c1c2ccccc2nc2[nH][nH]c(=S)n12` were, in that order, > 200 µM and 195 µM.
The matching figures for `Cc1cn(CC2=NCC(C)(C)CN2)c(=O)[nH]c1=O`: > 200 µM and > 200 µM.
For `Cc1ccccc1NC(=O)CC(=O)NNCC(=O)Nc1nnc(-c2ccccc2)s1`, the EC50 was > 61.7 µM and the IC50 stood at 46.8 µM.
`Cc1cc(C(c2cc(C)c(O)c(C(=O)O)c2)c2cc(C)c(O)c(C(=O)O)c2)cc(C(=O)O)c1O`: the EC50 is > 269 µM and the IC50 is > 269 µM.
Turning to `O=C1C(N=Nc2ccc(Cl)cc2)Sc2nc3ccccc3n21` (stereo unspecified), the result was inactive.
As for `COC(=O)C12C(=CCP1(C)=O)C(c1ccccc1)=NN2c1ccccc1` (stereo unspecified), the EC50 is > 27.5 µM and the IC50 was > 27.5 µM.
For `CCCCS(=O)(=O)CCC(N)P(=O)(O)O` (stereo unspecified), the EC50 is > 200 µM and the IC50 is > 200 µM.
On to `O=C(O)C1=C(O)C(C(=O)O)C23CCCCCCCCCCC12C(C(=O)O)C(O)=C3C(=O)O` (stereo unspecified), for which the outcome was inactive.
Consider `O=C(/C=C\c1cccc2ccccc12)c1cccs1`, for which the EC50 is > 3.98 µM and the IC50 was > 3.98 µM.
Consider `N#Cc1ccc(-c2nc(C#N)c(N)o2)cc1`, for which the EC50 was 135 µM and the IC50 is > 200 µM.
On to `COc1ccccc1/C=C(/C(=O)c1ccccc1)c1ccccc1`, for which the EC50 is > 8.71 µM and the IC50 is > 8.71 µM.
In the case of `Nc1ccc([C@H]2C(=O)N[C@H]3CCC[C@H]32)cc1`, the EC50 is > 417 µM and the half-maximal inhibitory concentration (IC50) is > 417 µM.
As to `O=S(=O)(O)SCNCNCCSCc1ccccc1`, the EC50 is > 138 µM and the IC50 was 45.7 µM.
For the compound `Cc1ccc(S(=O)(=O)N2CCCSCC2)cc1`, the EC50 was > 182 µM and the IC50 was > 182 µM.
For `CC(C)CCCC(C)[C@H]1CC[C@H]2[C@@H]3CC[C@H]4C[C@@H](CCC=C(c5cc(Cl)c(OC(=O)c6ccccc6)c(C(=O)O)c5)c5cc(Cl)c(OC(=O)c6ccccc6)c(C(=O)O)c5)CC[C@]4(C)[C@H]3CC[C@]12C` (stereo partly specified), the EC50 was > 200 µM and the IC50 is > 200 µM.
On to `C#CCOC(=O)[C@@H](C)c1ccc2cc(OC)ccc2c1`, for which the EC50 was > 200 µM and the 50% inhibitory concentration (IC50) came out at 47.9 µM.
The like results for `COc1cc2c3c(cccc3c1)C(=O)N(CCN(C)C)C2=O` were, in that order, > 200 µM and 1.26 µM.
As for `O=C(OCc1ccccc1)N1CCN(C(=O)OCc2ccccc2)CCN(C(=O)OCc2ccccc2)CCN(C(=O)OCc2ccccc2)CCN(C(=O)OCc2ccccc2)CC1`, the EC50 is > 100 µM and the IC50 was > 100 µM.
For `COc1cc(C2SC(N)=Nc3c2c(C)nn3C(=O)c2ccc(Cl)cc2)ccc1O` (stereo unspecified), the EC50 is > 200 µM and the IC50 was > 200 µM.
